# Measurements reported in paper PMC4303209, “A novel phosphatidylinositol 3-kinase (PI3K) inhibitor directs a potent FOXO-dependent, p53-independent cell cycle arrest phenotype characterized by the differential induction of a subset of FOXO-regulated genes” (Breast Cancer Research : BCR, 2014).
# Test system: MCF-7 breast cancer cells
# Test: Microarray gene expression analysis (Agilent whole human genome 4 x 44K; compound vs DMSO, LIMMA log2 fold change)
# Format: cell-based
# Conditions: Apoptosis genes
structure (smiles),measurement,setting,value
Cn1ncc2c(N3CCOCC3)nc(-c3cccc(O)c3)nc21 [ETP-45658],KALRN log2FC,Gene 8997,0.091
same,SOCS3 log2FC,Gene 9021,-1.264
same,BRSK2 log2FC,Gene 9024,-0.150
same,UBE2M log2FC,Gene 9040,-0.487
same,SART1 log2FC,Gene 9092,-0.304
same,DNAJA3 log2FC,Gene 9093,0.296
same,RABEP1 log2FC,Gene 9135,0.616
same,ARHGEF2 log2FC,Gene 9181,-0.734
same,DEDD log2FC,Gene 9191,-0.182
same,AURKB log2FC,Gene 9212,-0.212
same,FAIM3 log2FC,Gene 9214,-0.667
same,DLG5 log2FC,Gene 9231,-0.344
same,PNMA1 log2FC,Gene 9240,0.386
same,NOG log2FC,Gene 9241,-0.420
same,CRLF1 log2FC,Gene 9244,-0.116
same,STK17B log2FC,Gene 9262,0.460
same,STK17A log2FC,Gene 9263,0.274
same,BCL7C log2FC,Gene 9274,-0.273
same,TAOK2 log2FC,Gene 9344,-0.736
same,SLIT2 log2FC,Gene 9353,0.124
same,SLC9A3R1 log2FC,Gene 9368,-0.593
same,TJP2 log2FC,Gene 9414,0.142
same,NTN1 log2FC,Gene 9423,-0.272
same,ITM2B log2FC,Gene 9445,0.364
same,AIM2 log2FC,Gene 9447,-0.111
same,LY86 log2FC,Gene 9450,-0.441
same,EIF2AK3 log2FC,Gene 9451,0.631
same,HAND2 log2FC,Gene 9464,-0.617
same,ATG5 log2FC,Gene 9474,-0.569
same,ROCK2 log2FC,Gene 9475,0.291
same,MAPK8IP1 log2FC,Gene 9479,-0.208
same,SLC25A27 log2FC,Gene 9481,0.161
same,PSMF1 log2FC,Gene 9491,-0.383
same,LITAF log2FC,Gene 9516,-0.463
same,EEF1E1 log2FC,Gene 9521,0.192
same,BAG4 log2FC,Gene 9530,0.066
same,BAG3 log2FC,Gene 9531,-0.998
same,EI24 log2FC,Gene 9538,-0.507
same,BCAR1 log2FC,Gene 9564,-0.597
same,BRE log2FC,Gene 9577,-0.322
same,RNF7 log2FC,Gene 9616,-0.220
same,TRAF4 log2FC,Gene 9618,-0.910
same,AATK log2FC,Gene 9625,1.732
same,IKBKE log2FC,Gene 9641,-0.592
same,PPM1F log2FC,Gene 9647,-0.513
same,RAPGEF2 log2FC,Gene 9693,0.863
same,ESPL1 log2FC,Gene 9700,0.453
same,HERPUD1 log2FC,Gene 9709,0.217
same,SLK log2FC,Gene 9748,0.938
same,BCLAF1 log2FC,Gene 9774,0.733
same,KIAA0141 log2FC,Gene 9812,0.422
same,RB1CC1 log2FC,Gene 9821,1.457
same,ARHGEF11 log2FC,Gene 9826,-0.194
same,ARHGEF17 log2FC,Gene 9828,0.130
same,MELK log2FC,Gene 9833,0.433
same,PSMD6 log2FC,Gene 9861,0.300
same,ARNT2 log2FC,Gene 9915,-0.108
same,THOC1 log2FC,Gene 9984,0.606
same,CASP8AP2 log2FC,Gene 9994,0.813
same,SRA1 log2FC,Gene 10011,-0.924
same,PDCD6IP log2FC,Gene 10015,0.516
same,PDCD6 log2FC,Gene 10016,-0.540
same,BCL2L11 log2FC,Gene 10018,0.145
same,PARP2 log2FC,Gene 10038,0.419
same,DNAJB6 log2FC,Gene 10049,0.317
same,DNM1L log2FC,Gene 10059,0.674
same,PDCD7 log2FC,Gene 10081,0.102
same,PPIF log2FC,Gene 10105,-1.006
same,FEM1B log2FC,Gene 10116,-0.258
same,BCAP31 log2FC,Gene 10134,-0.393
same,RBM5 log2FC,Gene 10181,0.716
same,RNF41 log2FC,Gene 10193,0.235
same,PSME3 log2FC,Gene 10197,-1.314
same,DHRS2 log2FC,Gene 10202,0.711
same,TOPORS log2FC,Gene 10210,0.700
same,PSMD14 log2FC,Gene 10213,0.447
same,SPRY2 log2FC,Gene 10253,-1.064
same,NET1 log2FC,Gene 10276,0.571
same,UBE4B log2FC,Gene 10277,-0.652
same,SAP18 log2FC,Gene 10284,0.262
same,TRAIP log2FC,Gene 10293,0.639
same,MAEA log2FC,Gene 10296,-0.219
same,PAK4 log2FC,Gene 10298,-0.601
same,RTN3 log2FC,Gene 10313,-0.201
same,CITED2 log2FC,Gene 10370,2.261
same,SEMA3A log2FC,Gene 10371,0.054
same,DLC1 log2FC,Gene 10395,-0.918
same,GNB2L1 log2FC,Gene 10399,-0.052
same,YAP1 log2FC,Gene 10413,0.283
same,CFDP1 log2FC,Gene 10428,0.559
same,C1D log2FC,Gene 10438,0.287
same,ACAA2 log2FC,Gene 10449,0.222
same,VAV3 log2FC,Gene 10451,2.242
same,STK25 log2FC,Gene 10494,0.126
same,SEMA4D log2FC,Gene 10507,0.201
same,MYBBP1A log2FC,Gene 10514,-0.538
same,CIB1 log2FC,Gene 10519,-0.090
same,ATG7 log2FC,Gene 10533,-0.393
same,HTATIP2 log2FC,Gene 10553,0.241
same,ERN2 log2FC,Gene 10595,-0.829
same,RBCK1 log2FC,Gene 10616,-0.413
same,STAMBP log2FC,Gene 10617,0.425
same,IVNS1ABP log2FC,Gene 10625,0.124
same,TXNIP log2FC,Gene 10628,2.131
same,RRAGA log2FC,Gene 10670,-0.331
same,PNMA2 log2FC,Gene 10687,-0.069
same,CHL1 log2FC,Gene 10752,0.057
same,NES log2FC,Gene 10763,-0.458
same,PLK2 log2FC,Gene 10769,-0.887
same,ZMYND11 log2FC,Gene 10771,0.411
same,NEK6 log2FC,Gene 10783,-0.620
same,NCKAP1 log2FC,Gene 10787,0.702
same,ZNF268 log2FC,Gene 10795,0.304
same,PPP1R13L log2FC,Gene 10848,0.207
same,LILRB1 log2FC,Gene 10859,-0.164
same,MRPS30 log2FC,Gene 10884,0.391
same,PROKR1 log2FC,Gene 10887,-0.235
same,PPARGC1A log2FC,Gene 10891,0.117
same,MALT1 log2FC,Gene 10892,-0.183
same,JTB log2FC,Gene 10899,-0.124
same,BLCAP log2FC,Gene 10904,-0.662
same,EDAR log2FC,Gene 10913,-0.358
same,RNPS1 log2FC,Gene 10921,-0.273
same,FASTK log2FC,Gene 10922,-0.423
same,PRDX3 log2FC,Gene 10935,0.630
same,MLLT11 log2FC,Gene 10962,-0.777
same,YWHAQ log2FC,Gene 10971,0.450
same,IL24 log2FC,Gene 11009,-0.211
same,RIPK3 log2FC,Gene 11035,0.042
same,PIM2 log2FC,Gene 11040,-0.863
same,DIDO1 log2FC,Gene 11083,-0.773
same,FAF1 log2FC,Gene 11124,0.204
same,CAPN10 log2FC,Gene 11132,-0.095
same,NISCH log2FC,Gene 11188,0.948
same,CHEK2 log2FC,Gene 11200,0.312
same,AKAP13 log2FC,Gene 11214,-0.384
same,DDX20 log2FC,Gene 11218,0.500
same,PDCD10 log2FC,Gene 11235,0.541
same,GABARAP log2FC,Gene 11337,0.197
same,ATF5 log2FC,Gene 22809,-1.275
same,PHLDA1 log2FC,Gene 22822,-2.095
same,CARD8 log2FC,Gene 22900,0.190
same,SNW1 log2FC,Gene 22938,0.686
same,TRIM32 log2FC,Gene 22954,-0.374
same,ACIN1 log2FC,Gene 22985,-0.352
same,TRIM35 log2FC,Gene 23087,0.473
same,KIF1B log2FC,Gene 23095,0.166
same,PSME4 log2FC,Gene 23198,0.174
same,ARHGEF9 log2FC,Gene 23229,0.258
same,PACS2 log2FC,Gene 23241,-0.307
same,MCF2L log2FC,Gene 23263,0.118
same,TRIM2 log2FC,Gene 23321,1.078
same,ARHGEF12 log2FC,Gene 23365,0.173
same,PPP1R13B log2FC,Gene 23368,0.098
same,NCSTN log2FC,Gene 23385,0.216
same,ADNP log2FC,Gene 23394,0.193
same,SIRT1 log2FC,Gene 23411,1.263
